Reference: article PMC12136037, “Type II kinase inhibitors that target Parkinson’s disease–associated LRRK2” (Science Advances, 2025)

Legend:
Assay in all cases: DSF 100 kinase selectivity screen;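 further: compound tested at 20 µM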
Type in all cases: binding
[1] = target: T1, ~100 representative kinases (Homo sapiens, UniProt Q15418); details: Protein RPS6KA1; DSF; average of three replicates
T1 construct: Recombinant protein kinase domains with a concentration of 2 μM
Procedure, shortened: (§1)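 Each kinase domain, at 2 μM, is mixed with 20 μM test compound and SYPRO Orange in Hepes (20 mM, pH 7.5) with 500 mM NaCl. Temperature is then raised at 3°C/min and fluorescence-monitored unfolding yields the melting temperature change, ΔTm in degrees Celsius.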

[2] = target: T2, ~100 representative kinases (Homo sapiens, UniProt O96017); details: Protein CHEK2; average of three replicates
T2 construct: Recombinant protein kinase domains with a concentration of 2 μM
Procedure, shortened: as §1

[3] = target: T3, ~100 representative kinases (Homo sapiens, UniProt O15264); details: protein MAPK13; average of three replicates
T3 construct: Recombinant protein kinase domains with a concentration of 2 μM
T3 sequence (O15264 1-365): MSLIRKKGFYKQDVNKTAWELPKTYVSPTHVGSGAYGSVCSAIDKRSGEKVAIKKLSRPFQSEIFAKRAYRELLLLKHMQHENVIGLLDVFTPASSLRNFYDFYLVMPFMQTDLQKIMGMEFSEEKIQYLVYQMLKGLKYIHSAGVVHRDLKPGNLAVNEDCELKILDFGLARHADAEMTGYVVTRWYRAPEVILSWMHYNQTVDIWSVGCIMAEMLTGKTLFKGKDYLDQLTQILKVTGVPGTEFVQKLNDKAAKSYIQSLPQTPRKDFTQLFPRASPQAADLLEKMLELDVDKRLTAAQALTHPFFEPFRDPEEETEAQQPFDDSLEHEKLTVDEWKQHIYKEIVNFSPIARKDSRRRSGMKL
Procedure, shortened: as §1

[4] = target: T4, ~100 representative kinases (Homo sapiens, UniProt P15056); details: Protein BRAF; average of three replicates
T4 construct: Recombinant protein kinase domains with a concentration of 2 μM
Procedure, shortened: as §1

[5] = target: T5, ~100 representative kinases (Homo sapiens, UniProt Q9UKI8); details: Protein TLK1; DSF; average of three replicates
T5 construct: Recombinant protein kinase domains with a concentration of 2 μM
T5 sequence (Q9UKI8 1-766): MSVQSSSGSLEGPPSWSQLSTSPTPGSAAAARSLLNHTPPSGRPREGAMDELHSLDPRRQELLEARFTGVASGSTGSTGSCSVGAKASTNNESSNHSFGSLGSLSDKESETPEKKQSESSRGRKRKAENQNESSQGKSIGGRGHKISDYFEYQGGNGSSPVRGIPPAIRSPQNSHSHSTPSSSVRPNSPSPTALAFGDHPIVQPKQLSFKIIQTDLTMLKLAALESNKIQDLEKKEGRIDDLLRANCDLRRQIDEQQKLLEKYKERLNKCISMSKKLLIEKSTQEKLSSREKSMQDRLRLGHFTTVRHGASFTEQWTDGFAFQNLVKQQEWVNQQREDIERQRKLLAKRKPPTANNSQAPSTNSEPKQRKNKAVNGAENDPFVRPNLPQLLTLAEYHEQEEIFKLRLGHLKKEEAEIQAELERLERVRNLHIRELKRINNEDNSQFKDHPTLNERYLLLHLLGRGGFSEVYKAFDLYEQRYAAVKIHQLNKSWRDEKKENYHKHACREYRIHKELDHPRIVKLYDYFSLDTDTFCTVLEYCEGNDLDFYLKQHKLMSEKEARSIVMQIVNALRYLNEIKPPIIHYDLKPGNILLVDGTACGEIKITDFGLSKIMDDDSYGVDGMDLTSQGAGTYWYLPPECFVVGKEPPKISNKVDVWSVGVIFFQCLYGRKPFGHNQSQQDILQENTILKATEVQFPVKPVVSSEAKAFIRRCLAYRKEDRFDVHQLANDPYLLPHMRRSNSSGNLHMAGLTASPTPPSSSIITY
Procedure, shortened: as §1

[6] = target: T6, ~100 representative kinases (Homo sapiens, UniProt Q9Y2H1); details: Protein STK38L; DSF; average of three replicates
T6 construct: Recombinant protein kinase domains with a concentration of 2 μM
Procedure, shortened: as §1

[7] = target: T7, ~100 representative kinases (Homo sapiens, UniProt Q9UPE1); details: Protein SRPK3; DSF; average of three replicates
T7 construct: Recombinant protein kinase domains with a concentration of 2 μM
Procedure, shortened: as §1

[8] = target: T8, ~100 representative kinases (Homo sapiens, UniProt Q16566); details: Protein CAMK4; average of three replicates
T8 construct: Recombinant protein kinase domains with a concentration of 2 μM
T8 sequence (Q16566 1-473): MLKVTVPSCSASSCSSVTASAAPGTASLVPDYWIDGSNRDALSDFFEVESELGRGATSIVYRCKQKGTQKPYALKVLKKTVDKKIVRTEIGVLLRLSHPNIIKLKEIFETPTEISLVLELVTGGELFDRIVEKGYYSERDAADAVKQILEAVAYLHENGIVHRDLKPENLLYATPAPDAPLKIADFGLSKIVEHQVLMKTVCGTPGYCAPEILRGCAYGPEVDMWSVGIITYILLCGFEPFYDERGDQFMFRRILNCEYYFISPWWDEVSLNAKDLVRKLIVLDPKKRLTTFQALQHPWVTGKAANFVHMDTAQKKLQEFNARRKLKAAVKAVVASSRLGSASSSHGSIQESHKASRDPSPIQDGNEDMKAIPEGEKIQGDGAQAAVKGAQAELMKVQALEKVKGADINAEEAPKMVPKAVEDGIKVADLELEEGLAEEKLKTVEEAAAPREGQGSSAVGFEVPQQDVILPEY
Procedure, shortened: as §1

T6 sequence (Q9Y2H1 whole entry, the tested form may be a part): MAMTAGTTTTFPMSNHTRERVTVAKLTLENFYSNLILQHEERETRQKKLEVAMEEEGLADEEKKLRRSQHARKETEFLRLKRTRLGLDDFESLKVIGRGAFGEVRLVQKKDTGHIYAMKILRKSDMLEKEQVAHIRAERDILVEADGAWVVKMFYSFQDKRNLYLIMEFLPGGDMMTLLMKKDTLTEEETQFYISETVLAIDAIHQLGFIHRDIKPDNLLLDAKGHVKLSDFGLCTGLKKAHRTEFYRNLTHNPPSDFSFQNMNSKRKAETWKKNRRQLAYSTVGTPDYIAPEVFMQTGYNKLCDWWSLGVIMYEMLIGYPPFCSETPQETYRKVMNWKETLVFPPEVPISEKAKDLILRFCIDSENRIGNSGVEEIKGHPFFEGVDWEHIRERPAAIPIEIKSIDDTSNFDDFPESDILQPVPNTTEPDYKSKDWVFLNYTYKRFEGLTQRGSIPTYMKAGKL
T2 sequence (O96017 whole entry, the tested form may be a part): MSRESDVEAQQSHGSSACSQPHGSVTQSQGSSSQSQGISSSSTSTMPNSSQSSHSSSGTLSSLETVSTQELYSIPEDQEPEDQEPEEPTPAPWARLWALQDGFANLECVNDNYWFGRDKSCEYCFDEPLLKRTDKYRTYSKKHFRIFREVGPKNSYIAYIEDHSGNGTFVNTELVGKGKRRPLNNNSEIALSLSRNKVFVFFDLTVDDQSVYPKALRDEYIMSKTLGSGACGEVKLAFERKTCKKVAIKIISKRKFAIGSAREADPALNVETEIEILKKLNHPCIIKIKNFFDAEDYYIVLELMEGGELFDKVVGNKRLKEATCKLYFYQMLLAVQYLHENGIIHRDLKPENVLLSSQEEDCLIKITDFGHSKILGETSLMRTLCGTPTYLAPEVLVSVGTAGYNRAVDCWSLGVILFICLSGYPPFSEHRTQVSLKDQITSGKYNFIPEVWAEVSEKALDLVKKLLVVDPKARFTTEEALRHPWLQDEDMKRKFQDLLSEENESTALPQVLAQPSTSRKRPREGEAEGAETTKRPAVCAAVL
T7 sequence (Q9UPE1 whole entry, the tested form may be a part): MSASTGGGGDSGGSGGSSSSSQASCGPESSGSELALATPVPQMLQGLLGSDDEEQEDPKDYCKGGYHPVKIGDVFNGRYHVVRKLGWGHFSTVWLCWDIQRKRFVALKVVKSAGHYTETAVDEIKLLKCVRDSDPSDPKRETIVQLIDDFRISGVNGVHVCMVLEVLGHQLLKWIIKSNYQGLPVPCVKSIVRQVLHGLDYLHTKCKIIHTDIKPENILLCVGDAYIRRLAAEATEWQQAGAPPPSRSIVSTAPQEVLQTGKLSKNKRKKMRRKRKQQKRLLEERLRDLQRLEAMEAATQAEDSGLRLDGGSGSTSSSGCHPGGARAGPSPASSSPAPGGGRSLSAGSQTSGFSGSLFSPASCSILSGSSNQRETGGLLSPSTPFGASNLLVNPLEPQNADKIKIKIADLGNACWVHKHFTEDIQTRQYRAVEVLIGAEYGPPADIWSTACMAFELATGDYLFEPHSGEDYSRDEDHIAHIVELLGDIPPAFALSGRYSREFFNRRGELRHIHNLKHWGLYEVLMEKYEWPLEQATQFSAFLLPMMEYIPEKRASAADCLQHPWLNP
T4 sequence (P15056 whole entry, the tested form may be a part): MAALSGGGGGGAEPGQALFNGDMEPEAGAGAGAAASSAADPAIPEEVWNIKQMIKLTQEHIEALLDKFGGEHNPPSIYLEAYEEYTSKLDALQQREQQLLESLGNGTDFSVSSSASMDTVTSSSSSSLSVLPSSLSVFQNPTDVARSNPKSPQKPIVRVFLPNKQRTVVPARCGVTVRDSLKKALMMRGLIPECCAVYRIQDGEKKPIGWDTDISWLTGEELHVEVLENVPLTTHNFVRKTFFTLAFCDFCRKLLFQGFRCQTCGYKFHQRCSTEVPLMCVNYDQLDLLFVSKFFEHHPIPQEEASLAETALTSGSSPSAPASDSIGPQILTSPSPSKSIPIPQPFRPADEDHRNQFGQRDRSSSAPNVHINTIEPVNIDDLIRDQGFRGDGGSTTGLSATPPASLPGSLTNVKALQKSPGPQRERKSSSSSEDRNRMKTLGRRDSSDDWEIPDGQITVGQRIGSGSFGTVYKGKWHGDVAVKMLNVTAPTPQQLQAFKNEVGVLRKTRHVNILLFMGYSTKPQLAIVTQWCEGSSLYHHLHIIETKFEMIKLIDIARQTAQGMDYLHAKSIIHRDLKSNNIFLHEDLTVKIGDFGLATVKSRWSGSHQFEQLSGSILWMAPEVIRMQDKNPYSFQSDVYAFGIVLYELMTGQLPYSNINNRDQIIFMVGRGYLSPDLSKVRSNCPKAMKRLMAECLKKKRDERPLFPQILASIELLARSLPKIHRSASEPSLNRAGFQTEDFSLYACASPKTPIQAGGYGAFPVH
T1 sequence (Q15418 whole entry, the tested form may be a part): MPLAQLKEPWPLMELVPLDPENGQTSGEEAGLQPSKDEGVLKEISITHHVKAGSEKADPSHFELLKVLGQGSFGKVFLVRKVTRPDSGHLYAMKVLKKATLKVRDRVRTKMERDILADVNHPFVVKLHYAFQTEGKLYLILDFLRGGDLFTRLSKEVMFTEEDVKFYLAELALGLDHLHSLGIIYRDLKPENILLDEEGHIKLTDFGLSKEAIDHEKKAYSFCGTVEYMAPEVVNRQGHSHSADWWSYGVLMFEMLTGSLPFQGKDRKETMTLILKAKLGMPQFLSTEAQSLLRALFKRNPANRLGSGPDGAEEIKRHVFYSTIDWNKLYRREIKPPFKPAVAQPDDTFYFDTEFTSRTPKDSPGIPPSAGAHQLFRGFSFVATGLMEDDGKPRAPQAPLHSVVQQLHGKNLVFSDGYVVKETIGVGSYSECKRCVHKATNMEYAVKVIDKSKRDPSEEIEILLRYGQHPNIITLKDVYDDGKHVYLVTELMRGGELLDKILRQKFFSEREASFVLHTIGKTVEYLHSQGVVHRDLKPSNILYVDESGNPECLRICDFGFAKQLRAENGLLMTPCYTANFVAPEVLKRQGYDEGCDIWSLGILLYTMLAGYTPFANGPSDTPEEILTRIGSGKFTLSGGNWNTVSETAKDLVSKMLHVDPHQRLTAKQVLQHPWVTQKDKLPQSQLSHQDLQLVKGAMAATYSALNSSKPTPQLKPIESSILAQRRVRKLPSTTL

| dTm [1] | dTm [2] | dTm [3] | dTm [4] | dTm [5] | dTm [6] | dTm [7] | dTm [8] | SMILES |
| --- | --- | --- | --- | --- | --- | --- | --- | --- |
| 0.32 K | 10.72 K | 16.99 K | 32.83 K | 0.24 K | 0.64 K | 9.26 K | 3.69 K | CC(C)(C)c1cc(NC(=O)Nc2cccc(-c3c[nH]c4ncnc(N5CCOCC5)c34)c2)n(-c2ccc3ncccc3c2)n1 [Compound 28] |
| 0.38 K | 12.51 K | 18.71 K | 37.18 K | 0.25 K | -0.41 K | 6.09 K | 2.94 K | Cc1ccc(-n2nc(C(C)(C)C)cc2NC(=O)Nc2cccc(-c3c[nH]c4ncnc(N5CCOCC5)c34)c2)cc1 [Compound 29] |
| -0.59 K | 4.41 K | 9.71 K | 18.85 K | -1.50 K | -1.01 K | 3.14 K | -1.02 K | Cc1ccc(-n2nc(C(C)(C)C)cc2NC(=O)Nc2cccc(-c3c[nH]c4nc(Cl)nc(N5CCOCC5)c34)c2)cc1 [Compound 30] |
| -0.67 K | 5.59 K | 11.86 K | 4.38 K | -1.67 K | -0.73 K | 3.85 K | -0.77 K | CC(=O)N1CCN(c2nc(Cl)nc3[nH]cc(-c4cccc(NC(=O)Nc5cc(C(C)(C)C)nn5-c5ccc(C)cc5)c4)c23)CC1 [Compound 31] |
| 1.99 K | 13.85 K | 0.85 K | -0.49 K | -1.95 K | -1.36 K | 1.84 K | 1.63 K | COc1cc(C(=O)N2CCOCC2)c(F)cc1Nc1nc(N(C)C)c2c(Cl)c[nH]c2n1 [Compound 36] |
| 0.36 K | 7.39 K | 0.37 K | 0.14 K | -1.44 K | -1.21 K | 0.46 K | -0.60 K | COc1cc(S(C)(=O)=O)ccc1Nc1nc(N(C)C)c2c(Cl)c[nH]c2n1 [Compound 37] |

The next lines start with the molecule.

| SMILES | dTm [1] | dTm [2] | dTm [3] | dTm [4] | dTm [5] | dTm [6] | dTm [7] | dTm [8] |
| --- | --- | --- | --- | --- | --- | --- | --- | --- |
| O=C(Nc1cccc(-c2c[nH]c3ncnc(N4CCOCC4)c23)c1)C1(C(=O)Nc2ccc(F)c(Br)c2)CC1 [Compound 19] | 0.26 K | 3.80 K | 11.96 K | 13.24 K | 2.03 K | 0.00 K | 6.39 K | 4.72 K |
| Cc1cc(NC(=O)C2(C(=O)Nc3cccc(-c4c[nH]c5ncnc(N6CCOCC6)c45)c3)CC2)ccc1F [Compound 20] | 0.33 K | 5.31 K | 13.05 K | 13.62 K | -0.17 K | 0.36 K | 10.86 K | 4.77 K |
| COc1cc(NC(=O)C2(C(=O)Nc3cccc(-c4c[nH]c5ncnc(N6CCOCC6)c45)c3)CC2)ccc1F [Compound 21] | 0.11 K | 4.32 K | 11.57 K | 10.93 K | -0.77 K | -0.18 K | 6.98 K | 2.09 K |
| CC(C)(C)c1cccc(NC(=O)C2(C(=O)Nc3cccc(-c4c[nH]c5ncnc(N6CCOCC6)c45)c3)CC2)c1 [Compound 22] | -0.38 K | 3.64 K | 6.63 K | 15.10 K | 0.35 K | -2.35 K | 4.39 K | 1.51 K |
| O=C(Nc1cccc(-c2c[nH]c3ncnc(N4CCOCC4)c23)c1)C1(C(=O)Nc2ccc(F)cc2F)CC1 [Compound 23] | 0.27 K | 3.32 K | 7.48 K | 9.00 K | -0.64 K | 0.0847 K | 4.09 K | 0.57 K |
| Cc1cc(F)ccc1NC(=O)C1(C(=O)Nc2cccc(-c3c[nH]c4ncnc(N5CCOCC5)c34)c2)CC1 [Compound 24] | 0.19 K | 2.66 K | 6.95 K | 8.44 K | -0.75 K | -0.0467 K | 1.90 K | 0.42 K |
| O=C(Nc1cccc(-c2c[nH]c3ncnc(N4CCOCC4)c23)c1)C1(C(=O)Nc2cc(Br)c(F)cc2F)CC1 [Compound 25] | -1.87 K | 2.02 K | 1.39 K | 11.56 K | 1.57 K | 0.00 K | 3.28 K | 1.53 K |
| O=C(Nc1cccc(-c2c[nH]c3ncnc(N4CCOCC4)c23)c1)C1(C(=O)Nc2ccc(F)c(Br)c2F)CC1 [Compound 26] | 0.78 K | 2.81 K | 4.55 K | 9.02 K | 1.63 K | -2.16 K | 2.55 K | 1.91 K |
| O=C(Nc1cc(F)cc(Br)c1)C1(C(=O)Nc2cccc(-c3c[nH]c4ncnc(N5CCOCC5)c34)c2)CC1 [Compound 27] | 0.00 K | 1.74 K | 4.18 K | 6.66 K | 1.59 K | -0.80 K | 0.82 K | 0.92 K |
| CCSc1nc(NC)c2c(-c3cccc(NC(=O)Nc4cc(C(C)(C)C)nn4-c4ccc(C)cc4)c3)c[nH]c2n1 [Compound 32] | 0.43 K | 3.19 K | 9.18 K | 0.90 K | -0.57 K | -0.75 K | 1.35 K | 0.28 K |
